Measurements: ChEMBL document CHEMBL1955855, “A domino Knoevenagel hetero-Diels-Alder reaction for the synthesis of polycyclic chromene derivatives and evaluation of their cytotoxicity” (Bioorg Med Chem Lett, 2012)
pIC50: −log10 of the molar value.

Tests used:
A549 = assay: Cytotoxicity against human A549 cells after 72 hrs by MTT assay; type: functional, cell-based; settings: for pIC50: Homo sapiens, A549, 72 h, read-out: IC50
B16 = assay: Cytotoxicity against mouse B16 cells after 72 hrs by MTT assay; type: functional, cell-based; settings: for pIC50: Mus musculus, B16, 72 h, read-out: IC50

| SMILES | pIC50 (A549) | pIC50 (B16) | IC50 (B16; b16) | IC50 (A549; a549) |
| --- | --- | --- | --- | --- |
| Cn1c2c(c(=O)n(C)c1=O)[C@H]1C3=Cc4ccccc4O[C@@]3(C)CC[C@H]1C(C)(C)O2 (relative stereo) | 5.42 | 5.07 | – | – |
| CC1(C)OC2=C(C(=O)CCC2)[C@H]2C3=Cc4cc(Br)ccc4O[C@@]3(C)CC[C@H]21 (relative stereo) | 4.71 | 4.78 | – | – |
| CC1(C)Oc2c(c(=O)oc3ccccc23)[C@H]2C3=Cc4ccccc4O[C@@]3(C)CC[C@H]21 (relative stereo) | 5.02 | 4.45 | – | – |
| CC1(C)OC2=C(C(=O)CCC2)[C@H]2C3=Cc4cc(Cl)ccc4O[C@@]3(C)CC[C@H]21 (relative stereo) | 5.40 | 5.70 | – | – |
| COc1cccc2c1C(=O)c1c(O)c3c(c(O)c1C2=O)C[C@@](O)(C(=O)CO)C[C@@H]3O[C@H]1C[C@H](N)[C@H](O)[C@H](C)O1 [DOXORUBICIN] | > 7.00 | > 7.00 | – | – |
| CC1(C)OC2=C(C(=O)c3ccccc32)[C@H]2C3=Cc4cc(Cl)ccc4O[C@@]3(C)CC[C@H]21 | 4.58 | – | Not Active | – |
| CC1(C)CC(=O)C2=C(C1)OC(C)(C)[C@@H]1CC[C@]3(C)Oc4ccccc4C=C3[C@H]21 (relative stereo) | 5.06 | 4.99 | – | – |
| CC1(C)OC2=C(C(=O)CCC2)[C@H]2C3=Cc4ccccc4O[C@@]3(C)CC[C@H]21 (relative stereo) | 4.68 | 4.89 | – | – |
| CC1(C)Oc2c(c(=O)oc3ccccc23)[C@H]2C3=Cc4cc(Cl)ccc4O[C@@]3(C)CC[C@H]21 (relative stereo) | 6.59 | 4.69 | – | – |
| Cn1c2c(c(=O)n(C)c1=O)[C@H]1C3=Cc4cc(Cl)ccc4O[C@@]3(C)CC[C@H]1C(C)(C)O2 (relative stereo) | – | 5.11 | – | Not Active |
| CC1(C)CC(=O)C2=C(C1)OC(C)(C)[C@@H]1CC[C@]3(C)Oc4ccc(Br)cc4C=C3[C@H]21 (relative stereo) | 5.21 | 4.90 | – | – |
